The nature of data set [1]: Stability against hydrolysis in H2O (HPLC, 197 nm). As to conditions: for HPLC peak 2.31 min, 2b / HPLC peak 27.11 min, 2a (trans) / HPLC peak 30.48 min, 2a (cis) / HPLC peak 52.24 min: 2a in water. Format: physicochemical. As to the method:
The contrast agents of the present series 100 mg are dissolved in distilled water 10 mL and is maintained as they are for 72 hours at 50° C. Using HPLC, O.D. (Optical Density) values are read at 197 nm and the stability of the agents is determined. The substances at each retention time are examined using LC Mass Spectroscopy for accurate identification of decomposed products.

In data set [2] the test system is ICR mice. Nature of the data set: In vivo MR experiment, T1-weighted images after tail vein injection. As to conditions: 0.1 mmol Gd/kg i.v. Here is the method:
The in vivo experiment is executed with compliance to a regulation of Animal Research Committee of KNU. 29-31 g weight 6-weeks male ICR mice are used. […] The measurement is carried out before and after the injection of the complexes 2a-e through the tail vein. […] After the mice wake from the anesthesia after each measurement, the mice were placed in a cage capable of free access to feed and food. For this measurement, the animals are held at about 37° C. using a warm water blanket. MR images are taken using a 1.5 T MR unit (GE Healthcare, Milwaukee, Wis.) with a manual RF coil for a small animal. The coil may be of a receiver type having a 50 mm inner diameter. […] MR images are collected for 24 h after the injection. Anatomical positions having an improved contrast are set for a liver, a bile duct, and a kidney on (post contrast) MR images. For quantitative measurements, a signal intensity in a region of interest (ROI) is measured using Advantage Window software (GE medical, U.S.). The CNR is calculated using a following equation (1): […] SNR is a […].

Data set [3] can be described thus: Kinetic stability in various pH ranges (evolution of R1 in PBS). Particulars: pH 1, [Gd]=1.0 mM in PBS, room temperature. It is filed as physicochemical. Here is the method: The kinetic stability is expressed as evolution of a water proton relaxation rate (R1) for 2 ([Gd]=1.0 mM) in PBS under various pH conditions (pH: 1, 3, 5, 7, 9 and 11) at a room temperature, as a function of the incubation time. The measurement is executed on a 1.5 T whole body system (GE Healthcare, Milwaukee, Wis., USA).

The nature of data set [4]: Relaxation rate measurement (R1, R2) in PBS and in PBS solution of HSA. Format: physicochemical. As to conditions: 293K. As to the method:
T1 measurement is carried out using an inversion recovery method at 1.5 T (64 MHz) in a variable inverse time (TI). MR images are obtained for 35 different TI values in a range of 50 to 1750 ms. A T1 relaxation time is obtained from a nonlinear least-squares fit of a signal strength measured at each TI value. For a T2 CPMG (Carr-Purcell-Meiboon-Gill) pulse sequence measurement, the measurement is adapted to a multi spin-echo measurement. 34 images are obtained at 34 different echo time (TE) values in a range of 10 to 1900 ms. The T2 relaxation time is obtained from a nonlinear least-squares fit of mean pixel values for multi spin-echo measurement at each echo time. Next, a relaxation rate (R1 and R2) is calculated as an inverse of a relaxation time per mM. The determined relaxation time (T1 and T2) and relaxation rate (R1 and R2) are subjected to an image processing to get a relaxation time map and relaxation rate respectively.
For comparison between the complexes 2a-e, there is no noticeable difference in R1's. The measurement is carried out for two different media, that is, PBS (pH=7.4) and PBS solution of HAS in order to indicate which blood-pool effect is expressed by the complexes 2a-e.

The mark [5] stands for this setting: PBS solution of 0.67 mM HSA, 64 MHz.

We go through 1 molecule from patent US10245328B2, “Gadolinium complex comprising DO3A-tranexamic acid conjugate” (KYUNGPOOK NATIONAL UNIVERSITY INDUSTRY-ACADEMIC COOPERATION …, priority 2014, dated 2019).

Entries after “also recorded” stand apart in the source; their conditions may differ.

For the molecule `CCOC(=O)C1CCC(CNC(=O)CN2CCN(CC(=O)[O-])CCN(CC(=O)[O-])CCN(CC(=O)[O-])CC2)CC1.[Gd+3]` (stereo not shown) [2a], in data set [1] (100 mg in distilled water 10 mL, 72 hours at 50° C.), the “hydrolytic stability (in words)” value is reported as “hydrolytic stability falls”. Also, in data set [1] (50° C./3 day), the “HPLC peak 2.31 min, 2b” value amounted to 0.72%; the “HPLC peak 27.11 min, 2a (trans)” value stood at 97.43%; the “HPLC peak 30.48 min, 2a (cis)” value is 1.25%; the “HPLC peak 52.24 min” value was 0.19%. Also, in data set [1] (initial), the “HPLC peak 2.31 min, 2b” value amounted to 0.01%; the “HPLC peak 27.11 min, 2a (trans)” value was found to be 97.73%; the “HPLC peak 30.48 min, 2a (cis)” value is given as 1.89%; the “HPLC peak 52.24 min” value worked out at 0.04%. For the same molecule, the “signal enhancement / signal strength at the liver” value in data set [2] (ICR mice, 1.5 T, initial 1 hour) is “insufficient to be qualified as the liver-specific contrast agent”. Besides, in data set [2] (in vivo MR images of mice), the “liver-specificity / class of contrast agent” value was “exhibits the liver-specificity; also recorded: true liver-specific contrast agent”. Further, the “kinetic stability (evolution of R1)” value in data set [3] is listed as “sufficient kinetic stability”. Besides, in data set [4] (PBS pH 7.4, 64 MHz (1.5 T)), the R1 stood at 4.84 ± 0.18 mM⁻¹ s⁻¹ and the R2 is 4.91 ± 0.25 mM⁻¹ s⁻¹. Moreover, in data set [4] (setting [5]), the “R1 in 0.67 mM HSA” value was found to be 5.11 ± 0.10 mM⁻¹ s⁻¹ and the “R2 in 0.67 mM HSA” value stood at 6.04 ± 0.13 mM⁻¹ s⁻¹.
